Structures are written as SMILES.

For this assay, the target named is T1, pY641-STAT6 in PBMC (Homo sapiens, UniProt P42226).
T1 construct: Cryopreserved Peripheral Blood Mononuclear Cells (PBMC) are from AllCells; host or cells: cryopreserved PBMC
T1 sequence (P42226 1-847): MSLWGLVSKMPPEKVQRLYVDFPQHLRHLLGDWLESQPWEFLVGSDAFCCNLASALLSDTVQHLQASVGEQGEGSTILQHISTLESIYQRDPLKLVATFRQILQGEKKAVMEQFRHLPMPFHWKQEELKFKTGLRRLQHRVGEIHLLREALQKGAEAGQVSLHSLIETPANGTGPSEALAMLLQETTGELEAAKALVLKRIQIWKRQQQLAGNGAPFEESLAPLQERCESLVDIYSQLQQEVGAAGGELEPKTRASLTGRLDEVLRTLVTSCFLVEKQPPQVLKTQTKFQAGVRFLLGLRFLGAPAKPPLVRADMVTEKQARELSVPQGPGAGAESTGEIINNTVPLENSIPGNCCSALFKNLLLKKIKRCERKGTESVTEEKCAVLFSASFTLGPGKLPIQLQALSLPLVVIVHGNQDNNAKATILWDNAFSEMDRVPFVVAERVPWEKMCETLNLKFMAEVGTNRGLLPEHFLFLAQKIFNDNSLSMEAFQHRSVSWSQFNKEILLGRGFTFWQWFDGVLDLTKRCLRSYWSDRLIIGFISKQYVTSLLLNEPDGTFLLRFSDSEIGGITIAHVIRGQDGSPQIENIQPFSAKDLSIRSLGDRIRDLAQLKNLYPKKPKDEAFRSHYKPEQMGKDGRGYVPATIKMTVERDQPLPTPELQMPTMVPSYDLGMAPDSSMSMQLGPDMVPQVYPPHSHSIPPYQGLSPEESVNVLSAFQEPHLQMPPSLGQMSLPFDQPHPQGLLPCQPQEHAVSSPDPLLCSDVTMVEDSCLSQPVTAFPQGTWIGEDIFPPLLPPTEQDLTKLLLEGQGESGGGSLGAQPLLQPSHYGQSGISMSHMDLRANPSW
As to the kind of experiment: MSD-pSTAT-PBMC Assay (pSTAT6, IL-4 stimulated). The format is cell-based. The settings on record: STAT6, PBMC, compound 3 hrs, then 1 ng/mL IL-4 for 10 min; Table 115. The method in brief: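 MSD electrochemiluminescence read-out: total STAT captured, probed with anti-pY641-STAT6 or anti-pY705-STAT3. Human PBMC, 3 h compound pretreatment, 10 min stimulation (IL-4 1 ng/mL or IL-6 10 ng/mL). Unstimulated signal subtracted, DMSO-normalized, variable-slope IC50.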
As to `CCCOC(=O)[C@H](C)NP(=O)(Oc1ccccc1)[C@@H](F)c1ccc2sc(C(=O)N[C@H]3CCC[C@H]4CC[C@@H](C(=O)N5C[C@@H](c6cccnc6)CC56CC6)N4C3=O)cc2c1` (stereo partly drawn) [Compound 379, propyl (((R)-fluoro(2-(((3S,6S,9aS)-5-oxo-3-((R)-6-(pyridin-3-yl)-4-azaspiro[2.4]heptane-4-carbonyl)octahydro-1H-pyrrolo[1,2-a]azepin-6-yl)carbamoyl)benzo [b]thiophen-5-yl)methyl)(phenoxy)phosphoryl)-L-alaninate], the IC50 (in general, the midpoint of a concentration-inhibition curve) was less than 100 nM.

On to `CCCOC(=O)[C@H](COC)NP(=O)(Oc1ccccc1)[C@@H](F)c1ccc2sc(C(=O)N[C@H]3CCCC[C@H]4CC[C@@H](C(=O)N5C[C@@H](c6cccnc6)CC56CC6)N4C3=O)cc2c1` (stereo partly drawn) [Compound 384, propyl N-(((R)-fluoro(2-(((3S,6S,10aS)-5-oxo-3-((R)-6-(pyridin-3-yl)-4-azaspiro[2.4]heptane-4-carbonyl)decahydropyrrolo[1,2-a]azocin-6-yl)carbamoyl)benzo [b]thiophen-5-yl)methyl)(phenoxy)phosphoryl)-O-methyl-L-serinate], for which the IC50 was less than 100 nM.

With `C[C@H](NP(=O)(Oc1ccccc1)[C@@H](F)c1ccc2sc(C(=O)N[C@H]3CCCC[C@H]4CC[C@@H](C(=O)N5C[C@@H](c6cccnc6)CC56CC6)N4C3=O)cc2c1)C(=O)OCc1ccccn1` (stereo partly drawn) [Compound 385, pyridin-2-ylmethyl (((R)-fluoro(2-(((3S,6S,10aS)-5-oxo-3-((R)-6-(pyridin-3-yl)-4-azaspiro[2.4]heptane-4-carbonyl)decahydropyrrolo[1,2-a]azocin-6-yl)carbamoyl)benzo [b]thiophen-5-yl)methyl)(phenoxy)phosphoryl)-L-alaninate], the IC50 was less than 100 nM.

Take `C[C@H](NP(=O)(Oc1ccccc1)[C@@H](F)c1ccc2sc(C(=O)N[C@H]3CCCC[C@H]4CC[C@@H](C(=O)N5C[C@@H](c6cccnc6)CC56CC6)N4C3=O)cc2c1)C(=O)OCC1(C)COC1` (stereo partly drawn) [Compound 386, (3-methyloxetan-3-yl)methyl (((R)-fluoro(2-(((3S,6S,10aS)-5-oxo-3-((R)-6-(pyridin-3-yl)-4-azaspiro[2.4]heptane-4-carbonyl)decahydropyrrolo[1,2-a]azocin-6-yl)carbamoyl)benzo [b]thiophen-5-yl)methyl)(phenoxy)phosphoryl)-L-alaninate]: the half-maximal inhibitory concentration (IC50) was less than 100 nM.

For `CCCOC(=O)[C@H](C)NP(=O)(Oc1ccccc1)[C@H](F)c1ccc2sc(C(=O)N[C@H]3CCC[C@H]4CC[C@@H](C(=O)N5C[C@@H](c6ccccc6)[C@H](C#N)C56CC6)N4C3=O)cc2c1` (stereo partly drawn) [Compound 387, propyl (((S)-(2-(((3S,6S,9aS)-3-((6R,7S)-7-cyano-6-phenyl-4-azaspiro[2.4]heptane-4-carbonyl)-5-oxooctahydro-1H-pyrrolo[1,2-a]azepin-6-yl)carbamoyl)benzo [b]thiophen-5-yl)fluoromethyl) (phenoxy)phosphoryl)-L-alaninate], the half-inhibitory concentration (IC50) was less than 100 nM.

Compound `CCCOC(=O)[C@H](C)NP(=O)(Oc1ccccc1)C(F)c1ccc2ccc(C(=O)N[C@H]3CCCC[C@H]4CC[C@@H](C(=O)N5CC(c6ccccc6)CC56CC6)N4C3=O)cc2c1` (stereo partly drawn) [Compound 411, propyl ((fluoro(7-(((3S,6S,10aS)-5-oxo-3-(6-phenyl-4-azaspiro[2.4]heptane-4-carbonyl)decahydropyrrolo[1,2-a]azocin-6-yl)carbamoyl)naphthalen-2-yl)methyl)(phenoxy)phosphoryl)-L-alaninate] yielded an IC50 of less than 100 nM.

As to `CCCOC(=O)[C@H](C)NP(=O)(Oc1ccccc1)C(F)(F)c1ccc2ccc(C(=O)N[C@H]3CCCC[C@H]4CC[C@@H](C(=O)N5C[C@@H](c6cc[nH]c(=O)c6)CC56CC6)N4C3=O)cc2c1` (stereo partly drawn) [Compound 414, propyl ((difluoro(7-(((3S,6S,10aS)-5-oxo-3-((R)-6-(2-oxo-1,2-dihydropyridin-4-yl)-4-azaspiro[2.4]heptane-4-carbonyl)decahydropyrrolo[1,2-a]azocin-6-yl)carbamoyl)naphthalen-2-yl)methyl)(phenoxy)phosphoryl)-L-alaninate], the IC50 was 100 to 1000 nM.

`CCCCOC(=O)[C@H](C)NP(=O)(Cc1ccc2ccc(C(=O)N[C@H]3CCCC[C@H]4CC[C@@H](C(=O)N5CC(c6ccccc6)CC56CC6)N4C3=O)cc2c1)Oc1cccc2ccccc12` (stereo partly drawn) [Compound 416, butyl ((naphthalen-1-yloxy)((7-(((3S,6S,10aS)-5-oxo-3-(6-phenyl-4-azaspiro[2.4]heptane-4-carbonyl)decahydropyrrolo[1,2-a]azocin-6-yl)carbamoyl)naphthalen-2-yl)methyl)phosphoryl)-L-alaninate] showed an IC50 of more than 3000 nM.

With `CC(C)COC(=O)[C@H](C)NP(=O)(Oc1ccccc1)[C@@H](F)c1ccc2sc(C(=O)N[C@H]3CCCC[C@H]4CC[C@@H](C(=O)N5C[C@@H](c6cccnc6)CC56CC6)N4C3=O)cc2c1` (stereo partly drawn) [Compound 417, isobutyl (((R)-fluoro(2-(((3S,6S,10aS)-5-oxo-3-((R)-6-(pyridin-3-yl)-4-azaspiro[2.4]heptane-4-carbonyl)decahydropyrrolo[1,2-a]azocin-6-yl)carbamoyl)benzo [b]thiophen-5-yl)methyl)(phenoxy)phosphoryl)-L-alaninate], the half-maximal inhibitory concentration (IC50) was less than 100 nM.

For `C[C@H](NP(=O)(Oc1ccccc1)[C@@H](F)c1ccc2sc(C(=O)N[C@H]3CCCC[C@H]4CC[C@@H](C(=O)N5C[C@@H](c6cccnc6)CC56CC6)N4C3=O)cc2c1)C(=O)OC1CC1` (stereo partly drawn) [Compound 418, cyclopropyl (((R)-fluoro(2-(((3S,6S,10aS)-5-oxo-3-((R)-6-(pyridin-3-yl)-4-azaspiro[2.4]heptane-4-carbonyl)decahydropyrrolo[1,2-a]azocin-6-yl)carbamoyl)benzo [b]thiophen-5-yl)methyl)(phenoxy)phosphoryl)-L-alaninate], the IC50 is less than 100 nM.

`CC(C)OC(=O)[C@H](C)NP(=O)(Cc1ccc2ccc(C(=O)N[C@H]3CCCC[C@H]4CC[C@@H](C(=O)N5C[C@H](c6cc[nH]c(=O)c6)CC56CC6)N4C3=O)cc2c1)Oc1ccccc1` (stereo partly drawn) [Compound 423, isopropyl (((7-(((3S,6S,10aS)-5-oxo-3-((S)-6-(2-oxo-1,2-dihydropyridin-4-yl)-4-azaspiro[2.4]heptane-4-carbonyl)decahydropyrrolo[1,2-a]azocin-6-yl)carbamoyl)naphthalen-2-yl)methyl)(phenoxy)phosphoryl)-L-alaninate]: the IC50 fell in the range of 100 to 1000 nM.

`CC(C)OC(=O)[C@H](C)NP(=O)(Cc1ccc2ccc(C(=O)N[C@H]3CCCC[C@H]4CC[C@@H](C(=O)N5C[C@@H](c6cc[nH]c(=O)c6)CC56CC6)N4C3=O)cc2c1)Oc1ccccc1` (stereo partly drawn) [Compound 424, isopropyl (((7-(((3S,6S,10aS)-5-oxo-3-((R)-6-(2-oxo-1,2-dihydropyridin-4-yl)-4-azaspiro[2.4]heptane-4-carbonyl)decahydropyrrolo[1,2-a]azocin-6-yl)carbamoyl)naphthalen-2-yl)methyl)(phenoxy)phosphoryl)-L-alaninate] had an IC50 of 100 to 1000 nM.

The compound `CCCOC(=O)[C@H](C)NP(=O)(Oc1ccccc1)C(F)c1ccc2ccc(C(=O)N[C@H]3CCCC[C@H]4CC[C@@H](C(=O)N5CCC(c6cccnc6)C5)N4C3=O)cc2c1` (stereo partly drawn) [Compound 427, propyl ((fluoro(7-(((3S,6S,10aS)-5-oxo-3-(3-(pyridin-3-yl)pyrrolidine-1-carbonyl)decahydropyrrolo[1,2-a]azocin-6-yl)carbamoyl)naphthalen-2-yl)methyl)(phenoxy)phosphoryl)-L-alaninate] gave an IC50 of less than 100 nM.

On to `CCCOC(=O)[C@H](C)NP(=O)(Oc1ccccc1)C(F)c1ccc2ccc(C(=O)N[C@H]3CCCC[C@H]4CC[C@@H](C(=O)N5CC(c6cccnc6)CC56CC6)N4C3=O)cc2c1` (stereo partly drawn) [Compound 429, propyl ((fluoro(7-(((3S,6S,10aS)-5-oxo-3-(6-(pyridin-3-yl)-4-azaspiro[2.4]heptane-4-carbonyl)decahydropyrrolo[1,2-a]azocin-6-yl)carbamoyl)naphthalen-2-yl)methyl)(phenoxy)phosphoryl)-L-alaninate], for which the IC50 was less than 100 nM.

With `C[C@H](NP(=O)(Cc1ccc2ccc(C(=O)N[C@H]3CCCC[C@H]4CC[C@@H](C(=O)N5CC(c6ccccc6)CC56CC6)N4C3=O)cc2c1)Oc1ccccc1)C(=O)OCC(C)(C)C` (stereo partly drawn) [Compound 436, neopentyl (((7-(((3S,6S,10aS)-5-oxo-3-(6-phenyl-4-azaspiro[2.4]heptane-4-carbonyl)decahydropyrrolo[1,2-a]azocin-6-yl)carbamoyl)naphthalen-2-yl)methyl)(phenoxy)phosphoryl)-L-alaninate], the IC50 is more than 3000 nM.

(Values after patent publication US20250215029A1 (Recludix Pharma, Inc., priority 2022, published 2025).)
